According to ChEMBL document CHEMBL5696443 (Clin Cancer Res, 2016):
pIC50: −log10 of the molar value. The source made the active and inactive calls. The rule behind the calls is not given here.

How the values were obtained:
[1] = target: Tyrosine-protein kinase JAK1 (Homo sapiens) (UniProt P23458); assay: Inhibition of human JAK1 at 1 uM using MBP as substrate in presence of [gamma33P]-ATP by HotSpot assay relative to control
[2] = system: EML4-ALK (Homo sapiens), Q9UM73+Q9HC35 [F1174V]; conditions: BaF3, time 3-5 weeks
[3] = system: BaF3; assay: Antitumor activity against mouse BaF3 cells expressing EML4-ALK L1196M mutant implanted in mouse assessed as tumor regression at 50 mg/kg, po administered once daily and measured after 8 days relative to control; type: functional; conditions: time 8 day
[4] = system: EML4-ALK (Homo sapiens), Q9UM73+Q9HC35 [F1174I]; conditions: BaF3, dose 200.0 nmol/L, time 3-5 weeks
[5] = target: Receptor tyrosine-protein kinase erbB-2 (Homo sapiens, UniProt P04626); assay: Inhibition of human ERBB2 using poly (Glu, Tyr)4:1 as substrate in presence of [gamma33P]-ATP by HotSpot assay
[6] = target: TGF-beta receptor type-2 (Homo sapiens) (UniProt P37173); assay: Inhibition of human TGFBR2 at 1 uM using MBP as substrate in presence of [gamma33P]-ATP by HotSpot assay relative to control
[7] = target: Serine/threonine-protein kinase Nek1 (Homo sapiens) (UniProt Q96PY6); assay: Inhibition of human NEK1 at 1 uM using MBP as substrate in presence of [gamma33P]-ATP by HotSpot assay relative to control
[8] = target: Calcium/calmodulin-dependent protein kinase type 1 (Homo sapiens) (UniProt Q14012); assay: Inhibition of human CAMK1a at 1 uM using KKALRRQETVDAL as substrate in presence of [gamma33P]-ATP by HotSpot assay relative to control
[9] = target: Serine/threonine-protein kinase PAK 5 (Homo sapiens) (UniProt Q9P286); assay: Inhibition of human PAK5 at 1 uM using RRRLSFAEPG as substrate in presence of [gamma33P]-ATP by HotSpot assay relative to control
[10] = system: NCI-H3122; conditions: time 72 hrs
[11] = target: Cyclin-dependent kinase 5/CDK5 activator 1 (Homo sapiens) (UniProt Q00535+Q15078); assay: Inhibition of human CDK5/p25 at 1 uM using RB protein as substrate in presence of [gamma33P]-ATP by HotSpot assay relative to control; type: protein-complex assay
[12] = target: Cytoplasmic tyrosine-protein kinase BMX (Homo sapiens) (UniProt P51813); assay: Inhibition of human BMX at 1 uM using poly (Glu, Tyr)4:1 as substrate in presence of [gamma33P]-ATP by HotSpot assay relative to control
[13] = target: Tyrosine-protein kinase Tec (Homo sapiens) (UniProt P42680); assay: Inhibition of human TEC at 1 uM using poly (Glu, Tyr)4:1 as substrate in presence of [gamma33P]-ATP by HotSpot assay relative to control
[14] = target: Serine/threonine-protein kinase PAK 6 (Homo sapiens) (UniProt Q9NQU5); assay: Inhibition of human PAK6 at 1 uM using RRRLSFAEPG as substrate in presence of [gamma33P]-ATP by HotSpot assay relative to control
[15] = target: Serine/threonine-protein kinase PAK 3 (Homo sapiens) (UniProt O75914); assay: Inhibition of human PAK3 at 1 uM using RRRLSFAEPG as substrate in presence of [gamma33P]-ATP by HotSpot assay relative to control
[16] = target: Casein kinase I isoform alpha (Homo sapiens) (UniProt P48729); assay: Inhibition of human CSNK1A1 at 1 uM using KRRRAL[pS]VASLPGL as substrate in presence of [gamma33P]-ATP by HotSpot assay relative to control
[17] = system: EML4-ALK (Homo sapiens), Q9UM73+Q9HC35 [D1203N]; conditions: BaF3, time 3-5 weeks
[18] = target: Serine/threonine-protein kinase Chk2 (Homo sapiens, UniProt O96017); assay: Inhibition of human CHEK2 using KKKVSRSGLYRSPSMPENLNRPR as substrate in presence of [gamma33P]-ATP by HotSpot assay
[19] = target: Mitogen-activated protein kinase 10 (Homo sapiens) (UniProt P53779); assay: Inhibition of human MAPK10 at 1 uM using ATF2 as substrate in presence of [gamma33P]-ATP by HotSpot assay relative to control
[20] = system: NCI-H2228; assay: Antitumor activity against ALK positive human NCI-H2228 cells xenografted in CB-17/SCID orthotopic brain tumor mouse model assessed as median survival time at 50 mg/kg po administered daily and measured after 64 days (reference value: 28 days); type: functional; conditions: time 64 day
[21] = target: Casein kinase I isoform gamma-2 (Homo sapiens) (UniProt P78368); assay: Inhibition of human CSNK1G2 at 1 uM using KRRRAL[pS]VASLPGL as substrate in presence of [gamma33P]-ATP by HotSpot assay relative to control
[22] = target: Mitogen-activated protein kinase 1 (Homo sapiens) (UniProt P28482); assay: Inhibition of human MAPK1 at 1 uM using MBP as substrate in presence of [gamma33P]-ATP by HotSpot assay relative to control
[23] = system: EML4-ALK (Homo sapiens), Q9UM73+Q9HC35 [L1198F]; conditions: BaF3, time 3-5 weeks
[24] = target: Tyrosine-protein kinase ABL2 (Homo sapiens) (UniProt P42684); assay: Inhibition of human ABL2 at 1 uM using EAIYAAPFAKKK as substrate in presence of [gamma33P]-ATP by HotSpot assay relative to control
[25] = target: Mitogen-activated protein kinase 13 (Homo sapiens) (UniProt O15264); assay: Inhibition of human MAPK13 at 1 uM using MBP as substrate in presence of [gamma33P]-ATP by HotSpot assay relative to control
[26] = target: Rhodopsin kinase GRK7 (Homo sapiens) (UniProt Q8WTQ7); assay: Inhibition of human GRK7 at 1 uM using casein as substrate in presence of [gamma33P]-ATP by HotSpot assay relative to control
[27] = target: Platelet-derived growth factor receptor alpha (Homo sapiens) (UniProt P16234); assay: Inhibition of human PDGFRalpha at 1 uM using poly (Glu, Tyr)4:1 as substrate in presence of [gamma33P]-ATP by HotSpot assay relative to control
[28] = target: MAP/microtubule affinity-regulating kinase 3 (Homo sapiens, UniProt P27448); assay: Inhibition of human MARK3 using KKKVSRSGLYRSPSMPENLNRPR as substrate in presence of [gamma33P]-ATP by HotSpot assay
[29] = target: Dual specificity protein kinase CLK2 (Homo sapiens, UniProt P49760); assay: Inhibition of human CLK2 using MBP as substrate in presence of [gamma33P]-ATP by HotSpot assay
Dual specificity protein kinase CLK2, sequence (P49760 whole entry): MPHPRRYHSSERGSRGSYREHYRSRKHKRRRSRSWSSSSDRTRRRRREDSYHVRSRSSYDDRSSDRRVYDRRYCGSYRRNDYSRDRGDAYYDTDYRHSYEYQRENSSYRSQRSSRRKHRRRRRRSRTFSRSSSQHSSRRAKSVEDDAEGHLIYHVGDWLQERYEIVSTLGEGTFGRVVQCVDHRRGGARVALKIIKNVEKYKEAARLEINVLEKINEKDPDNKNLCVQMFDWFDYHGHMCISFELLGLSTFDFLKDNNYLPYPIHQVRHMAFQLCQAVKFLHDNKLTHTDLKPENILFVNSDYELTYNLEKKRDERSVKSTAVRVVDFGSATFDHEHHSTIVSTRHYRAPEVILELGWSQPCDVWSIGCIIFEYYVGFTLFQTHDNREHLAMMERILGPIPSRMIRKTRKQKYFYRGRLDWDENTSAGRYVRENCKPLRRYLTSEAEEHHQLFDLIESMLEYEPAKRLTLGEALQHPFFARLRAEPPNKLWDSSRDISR

Tyrosine-protein kinase Tec (Homo sapiens), sequence (P42680 whole entry): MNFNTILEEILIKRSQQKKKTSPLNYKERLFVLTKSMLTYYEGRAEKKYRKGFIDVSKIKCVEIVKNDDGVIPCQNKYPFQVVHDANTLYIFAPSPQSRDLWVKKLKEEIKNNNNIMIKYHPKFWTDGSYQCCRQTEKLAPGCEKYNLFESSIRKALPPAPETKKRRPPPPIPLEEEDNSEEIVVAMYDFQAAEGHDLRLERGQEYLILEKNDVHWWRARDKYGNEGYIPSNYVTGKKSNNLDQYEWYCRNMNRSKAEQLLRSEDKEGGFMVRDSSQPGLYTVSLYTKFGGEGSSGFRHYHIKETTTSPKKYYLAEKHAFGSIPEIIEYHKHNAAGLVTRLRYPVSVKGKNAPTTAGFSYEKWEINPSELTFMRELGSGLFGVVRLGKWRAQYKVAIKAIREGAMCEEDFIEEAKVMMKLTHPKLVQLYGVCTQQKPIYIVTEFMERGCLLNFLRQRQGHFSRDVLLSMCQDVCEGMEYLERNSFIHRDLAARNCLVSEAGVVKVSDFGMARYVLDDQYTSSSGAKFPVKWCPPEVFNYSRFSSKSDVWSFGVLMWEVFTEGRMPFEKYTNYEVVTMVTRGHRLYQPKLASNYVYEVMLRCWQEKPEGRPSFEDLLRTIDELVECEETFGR
Mitogen-activated protein kinase 1 (Homo sapiens), sequence (P28482 whole entry): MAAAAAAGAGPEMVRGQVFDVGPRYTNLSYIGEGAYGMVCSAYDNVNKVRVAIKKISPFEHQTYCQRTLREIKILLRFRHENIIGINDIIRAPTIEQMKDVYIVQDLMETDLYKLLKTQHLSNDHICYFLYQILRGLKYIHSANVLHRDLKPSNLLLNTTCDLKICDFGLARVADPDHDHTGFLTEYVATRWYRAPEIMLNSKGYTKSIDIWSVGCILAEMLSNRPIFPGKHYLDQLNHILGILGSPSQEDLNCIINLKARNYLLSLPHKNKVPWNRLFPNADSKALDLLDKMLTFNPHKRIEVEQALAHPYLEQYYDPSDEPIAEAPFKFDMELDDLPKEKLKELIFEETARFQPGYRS
Mitogen-activated protein kinase 13 (Homo sapiens), sequence (O15264 whole entry): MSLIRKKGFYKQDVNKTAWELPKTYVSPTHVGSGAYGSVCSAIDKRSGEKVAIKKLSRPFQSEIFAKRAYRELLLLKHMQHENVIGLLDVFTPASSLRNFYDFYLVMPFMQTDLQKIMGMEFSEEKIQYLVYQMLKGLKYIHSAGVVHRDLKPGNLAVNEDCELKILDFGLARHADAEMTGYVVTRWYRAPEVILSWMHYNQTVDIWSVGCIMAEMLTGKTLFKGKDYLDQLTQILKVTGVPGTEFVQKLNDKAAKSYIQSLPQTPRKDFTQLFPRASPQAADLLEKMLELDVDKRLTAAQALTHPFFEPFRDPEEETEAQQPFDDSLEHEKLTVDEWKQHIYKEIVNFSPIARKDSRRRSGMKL
Mitogen-activated protein kinase 10 (Homo sapiens), sequence (P53779 whole entry): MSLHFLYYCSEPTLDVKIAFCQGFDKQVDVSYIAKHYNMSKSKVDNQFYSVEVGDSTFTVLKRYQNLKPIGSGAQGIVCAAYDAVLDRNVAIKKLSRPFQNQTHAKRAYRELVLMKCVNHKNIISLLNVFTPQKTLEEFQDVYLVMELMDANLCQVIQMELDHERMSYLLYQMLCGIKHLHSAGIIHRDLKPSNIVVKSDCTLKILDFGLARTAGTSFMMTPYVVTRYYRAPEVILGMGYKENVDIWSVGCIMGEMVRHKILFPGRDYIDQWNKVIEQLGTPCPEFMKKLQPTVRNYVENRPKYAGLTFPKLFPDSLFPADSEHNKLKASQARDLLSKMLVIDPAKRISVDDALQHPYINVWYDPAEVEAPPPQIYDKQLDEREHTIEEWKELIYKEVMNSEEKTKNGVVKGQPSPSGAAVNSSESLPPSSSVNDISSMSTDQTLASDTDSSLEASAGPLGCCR
Tyrosine-protein kinase JAK1 (Homo sapiens), sequence (P23458 whole entry): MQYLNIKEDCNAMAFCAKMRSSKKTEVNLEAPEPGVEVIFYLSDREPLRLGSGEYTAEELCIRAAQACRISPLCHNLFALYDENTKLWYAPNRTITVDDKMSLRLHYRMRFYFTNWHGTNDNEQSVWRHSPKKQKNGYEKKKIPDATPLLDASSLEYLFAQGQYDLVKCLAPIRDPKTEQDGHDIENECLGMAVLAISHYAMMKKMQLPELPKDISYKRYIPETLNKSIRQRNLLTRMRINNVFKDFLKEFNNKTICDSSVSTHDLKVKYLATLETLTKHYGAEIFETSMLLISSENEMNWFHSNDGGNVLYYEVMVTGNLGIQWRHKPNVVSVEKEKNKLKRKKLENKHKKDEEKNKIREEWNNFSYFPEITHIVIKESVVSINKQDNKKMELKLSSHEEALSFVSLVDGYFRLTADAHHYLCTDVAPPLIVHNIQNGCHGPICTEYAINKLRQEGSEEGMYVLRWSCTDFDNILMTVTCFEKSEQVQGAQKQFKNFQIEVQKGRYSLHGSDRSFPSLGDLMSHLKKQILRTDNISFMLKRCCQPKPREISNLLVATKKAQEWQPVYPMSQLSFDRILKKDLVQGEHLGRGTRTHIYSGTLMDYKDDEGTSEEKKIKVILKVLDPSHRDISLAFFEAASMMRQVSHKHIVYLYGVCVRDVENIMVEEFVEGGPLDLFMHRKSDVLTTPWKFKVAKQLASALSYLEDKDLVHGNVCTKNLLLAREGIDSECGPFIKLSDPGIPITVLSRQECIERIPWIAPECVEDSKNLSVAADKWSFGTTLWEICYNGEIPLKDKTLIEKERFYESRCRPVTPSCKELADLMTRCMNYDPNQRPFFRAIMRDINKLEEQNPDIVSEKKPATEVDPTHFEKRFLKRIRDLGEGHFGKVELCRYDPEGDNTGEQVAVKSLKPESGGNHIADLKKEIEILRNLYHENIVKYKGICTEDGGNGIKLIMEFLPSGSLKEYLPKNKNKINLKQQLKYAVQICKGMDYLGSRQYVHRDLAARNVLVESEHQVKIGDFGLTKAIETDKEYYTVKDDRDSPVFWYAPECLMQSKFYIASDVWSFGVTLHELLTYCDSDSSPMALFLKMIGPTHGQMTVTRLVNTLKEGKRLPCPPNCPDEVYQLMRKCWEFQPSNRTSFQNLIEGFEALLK
MAP/microtubule affinity-regulating kinase 3, sequence (P27448 whole entry): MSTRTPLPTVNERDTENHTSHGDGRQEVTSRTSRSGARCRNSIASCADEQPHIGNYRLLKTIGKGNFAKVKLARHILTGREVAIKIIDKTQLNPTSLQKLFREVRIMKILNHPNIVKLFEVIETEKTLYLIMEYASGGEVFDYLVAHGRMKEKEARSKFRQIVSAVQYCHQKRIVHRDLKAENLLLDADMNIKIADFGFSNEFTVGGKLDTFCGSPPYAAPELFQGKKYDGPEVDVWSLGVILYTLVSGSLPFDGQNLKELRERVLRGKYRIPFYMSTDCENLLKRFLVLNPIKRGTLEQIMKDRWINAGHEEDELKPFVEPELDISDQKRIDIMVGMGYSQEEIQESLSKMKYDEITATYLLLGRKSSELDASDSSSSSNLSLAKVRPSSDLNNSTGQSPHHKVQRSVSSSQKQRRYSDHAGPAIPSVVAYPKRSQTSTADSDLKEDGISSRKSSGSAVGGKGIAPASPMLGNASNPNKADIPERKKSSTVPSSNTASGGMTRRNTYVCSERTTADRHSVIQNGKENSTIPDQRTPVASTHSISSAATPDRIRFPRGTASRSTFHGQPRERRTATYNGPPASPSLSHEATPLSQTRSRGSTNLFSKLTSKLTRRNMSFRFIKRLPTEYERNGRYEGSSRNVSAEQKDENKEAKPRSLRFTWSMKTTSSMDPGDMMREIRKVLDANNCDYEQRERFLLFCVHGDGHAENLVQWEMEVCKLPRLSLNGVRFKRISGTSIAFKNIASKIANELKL
Casein kinase I isoform gamma-2 (Homo sapiens), sequence (P78368 whole entry, looked up, canonical isoform): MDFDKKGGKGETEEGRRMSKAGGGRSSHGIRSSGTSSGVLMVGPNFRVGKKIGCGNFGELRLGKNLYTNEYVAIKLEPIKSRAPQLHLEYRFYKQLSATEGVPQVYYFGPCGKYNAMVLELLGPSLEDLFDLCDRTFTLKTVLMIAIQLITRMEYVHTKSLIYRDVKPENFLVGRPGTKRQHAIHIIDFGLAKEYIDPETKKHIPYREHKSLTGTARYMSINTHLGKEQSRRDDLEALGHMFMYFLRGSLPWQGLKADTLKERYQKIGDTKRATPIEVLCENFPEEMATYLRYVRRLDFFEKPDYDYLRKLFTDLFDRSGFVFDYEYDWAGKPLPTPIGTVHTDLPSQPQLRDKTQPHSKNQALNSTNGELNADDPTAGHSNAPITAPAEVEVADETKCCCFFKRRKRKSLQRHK
Casein kinase I isoform alpha (Homo sapiens), sequence (P48729 2-337 limits assumed): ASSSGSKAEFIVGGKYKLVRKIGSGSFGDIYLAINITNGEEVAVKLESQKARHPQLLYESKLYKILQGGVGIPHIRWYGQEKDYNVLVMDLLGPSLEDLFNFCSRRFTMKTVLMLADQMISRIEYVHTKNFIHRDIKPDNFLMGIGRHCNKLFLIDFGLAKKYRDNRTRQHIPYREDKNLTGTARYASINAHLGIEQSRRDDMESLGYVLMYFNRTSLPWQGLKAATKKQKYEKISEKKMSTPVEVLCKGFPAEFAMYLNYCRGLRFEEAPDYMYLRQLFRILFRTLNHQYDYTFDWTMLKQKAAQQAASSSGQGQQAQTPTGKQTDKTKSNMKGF

Q: `COc1cc(N2CCC(N3CCN(C)CC3)CC2)ccc1Nc1ncc(Cl)c(Nc2ccccc2P(C)(C)=O)n1` [BRIGATINIB] was tested. Which inhibition [1] did it give?
A: < 90%

Q: And the IC90 [2]?
A: 0.195 µM

Q: And the Activity [3]?
A: 67%

Q: What about the inhibition [4] of the same compound?
A: inactive

Q: What about the pIC50 [5] of the same compound?
A: 7.38

Q: What about the inhibition [6] of the same compound?
A: < 90%

Q: What about the inhibition [7] of the same compound?
A: < 90%

Q: And the inhibition [8]?
A: < 90%

Q: And the inhibition [9]?
A: < 90%

Q: What about the GI50 [10] of the same compound?
A: 0.004 µM

Q: And the inhibition [11]?
A: < 90%

Q: And the inhibition [12]?
A: < 90%

Q: What about the inhibition [13] of the same compound?
A: < 90%

Q: And the inhibition [14]?
A: < 90%

Q: What about the inhibition [15] of the same compound?
A: < 90%

Q: And the inhibition [16]?
A: < 90%

Q: What about the IC90 [17] of the same compound?
A: 0.276 µM

Q: And the pIC50 [18]?
A: 8.19

Q: What about the inhibition [19] of the same compound?
A: < 90%

Q: And the MSD [20]?
A: >64 days

Q: What about the inhibition [21] of the same compound?
A: < 90%

Q: And the inhibition [22]?
A: < 90%

Q: What about the IC90 [23] of the same compound?
A: 0.242 µM

Q: What about the inhibition [24] of the same compound?
A: < 90%

Q: And the inhibition [25]?
A: < 90%

Q: And the inhibition [26]?
A: < 90%

Q: What about the inhibition [27] of the same compound?
A: < 90%

Q: What about the pIC50 [28] of the same compound?
A: 6.90

Q: What about the pIC50 [29] of the same compound?
A: 6.62
